From US11911628B2, “Electrostatic drug delivery” (NANO HESGARSAZAN SALAMAT ARYA INCUBATION CENTER FOR MEDICAL …, priority 2019, dated 2024)
“Also recorded” adds a separate entry of the source.

Test system: MC4L2 mice tumor
Experiment: MC4L2 mice tumor treated with drug with or without electrostatic field, tumor followed by sonography
Type: in vivo
Conditions: for reduction in tumor volume: without electrostatic field
Description: Here, three injection periods of Cisplatin were carried out every 3 days for a group of mice having a MC4L2 mice tumor as an example of triple-positive breast cancer. About 20 mg/kg of Cisplatin was applied for a Control sample with a MC4L2 mice tumor without applying an electrostatic field. In each period, about 5 mg/kg of Cisplatin was applied for a sample mouse No. 1 with a MC4L2 mice tumor, and then followed by applying an electrostatic field with an intensity in a range of −60 V to −120 V according to exemplary method 100 or exemplary method 110, described hereinabove, utilizing a conductive patch similar to electrically conductive element 304 on mice skin near the MC4L2 tumor site, and applying direct current (DC) electrostatic field utilizing a Van de Graaff device.
All sonography images were taken after about 10 days of treatments, and all drug injections were done every about 3 days.

Structure (SMILES)	tumor after treatment (sonography) (about 5 mg/kg Cisplatin per period, then DC electrostatic field -60 V to -120 V via conductive patch, three periods every 3 days)	reduction in tumor volume (about 20 mg/kg Cisplatin, injections every 3 days, sonography)	tumor after treatment (sonography) (about 1 mg/kg Doxorubicin per period, then DC electrostatic field 60 V to 120 V via conductive patch, four periods every 3 days)	reduction in tumor volume (about 10 mg/kg Doxorubicin, sonography after about 10 days)
N.N.[Cl][Pt][Cl] [Cisplatin]	no observable trace of tumor; also recorded: removed completely	about 60%		
COc1cccc2c1C(=O)c1c(O)c3c(c(O)c1C2=O)C[C@@](O)(C(=O)CO)C[C@@H]3O[C@H]1C[C@H](N)[C@H](O)[C@H](C)O1 [Doxorubicin]			no observable trace of tumor; also recorded: removed completely	about 75%
